Results on 16 molecules are retold here after patent US12077537B2 (Gilead Sciences, Inc., priority 2020, dated 2024).

pEC50: −log10 of the molar value.

This test has as its system HIV-IIIb. Put plainly: Antiviral assay in MT4 cells. In kind it is cell-based. The note with it: Human immunodeficiency virus 1, MT4, 120 h; MT-4 cells mixed with HIV-IIIb at m.o.i. 0.003; 5 days at 37° C.; CellTiter-Glo luminescence; 50% decrease in signal, a measure of HIV-1 replication. The procedure, abridged: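 Compound, tested at ten 3-fold dilutions in quadruplicate in 10% FBS medium, received MT-4 cells pre-mixed 1 hour with HIV-IIIb (m.o.i. 0.003). Protection was read as luminescent cell viability (CellTiter-Glo) after 5 days' culture at 37° C.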
On the technique in general: ATP-based viability assays read luminescence as a measure of living cells.
Molecule `Cn1nc(NS(C)(=O)=O)c2cccc(-c3cc4[nH]c(C5CC5)nc4nc3[C@H](Cc3cc(F)cc(F)c3)NC(=O)Cn3nc(C(F)(F)F)c4c3C(F)(F)[C@@H]3C[C@H]43)c21` [Example 92, N—((S)-1-(2-cyclopropyl-6-(1-methyl-3-(methylsulfonamido)-1H-indazol-7-yl)-1H-imidazo[4,5-b]pyridin-5-yl)-2-(3,5-difluorophenyl)ethyl)-2-((3bS,4aR)-5,5-difluoro-3-(trifluoromethyl)-3b,4,4a,5-tetrahydro-1H-cyclopropa[3,4]cyclopenta[1,2-c]pyrazol-1-yl)acetamide] showed a negative-log EC50 (pEC50) of 7.83.

`NC(=O)c1cc(-c2cc3sc(N4CCN(c5nc6ccccc6[nH]5)CC4)nc3nc2[C@H](Cc2cc(F)cc(F)c2)NC(=O)Cn2nc(C(F)F)c3c2C2CC2CC3)ccc1F` (stereo partly drawn) [Compound 46, 5-(2-(4-(1H-benzo[d]imidazol-2-yl)piperazin-1-yl)-5-((1S)-1-(2-(3-(difluoromethyl)-5,5a,6,6a-tetrahydrocyclopropa[g]indazol-1(4H)-yl)acetamido)-2-(3,5-difluorophenyl)ethyl)thiazolo[4,5-b]pyridin-6-yl)-2-fluorobenzamide] gave a pEC50 of 7.07.

Consider `Cn1nc(NS(C)(=O)=O)c2cccc(-c3cc4sc(N5CCC6(CC5)CNC6=O)nc4nc3[C@H](Cc3cc(F)cc(F)c3)NC(=O)Cn3nc(C(F)(F)F)c4c3C(F)(F)[C@@H]3C[C@H]43)c21` [Example 84, 2-((3bS,4aR)-5,5-difluoro-3-(trifluoromethyl)-3b,4,4a,5-tetrahydro-1H-cyclopropa[3,4]cyclopenta[1,2-c]pyrazol-1-yl)-N—((S)-2-(3,5-difluorophenyl)-1-(6-(1-methyl-3-(methylsulfonamido)-1H-indazol-7-yl)-2-(1-oxo-2,7-diazaspiro[3.5]nonan-7-yl)thiazolo[4,5-b]pyridin-5-yl)ethyl)acetamide], for which the pEC50 was 8.00. For `Cn1nc(NS(C)(=O)=O)c2c(Cl)ccc(-c3cc4nc(C5CC5)oc4nc3[C@H](Cc3cc(F)cc(F)c3)NC(=O)Cn3nc(C(F)F)c4c3C(F)(F)[C@@H]3C[C@H]43)c21` [Example 110, N—((S)-1-(6-(4-chloro-1-methyl-3-(methylsulfonamido)-1H-indazol-7-yl)-2-cyclopropyloxazolo[5,4-b]pyridin-5-yl)-2-(3,5-difluorophenyl)ethyl)-2-((3bS,4aR)-3-(difluoromethyl)-5,5-difluoro-3b,4,4a,5-tetrahydro-1H-cyclopropa[3,4]cyclopenta[1,2-c]pyrazol-1-yl)acetamide] the value was 7.92.

As to `Cn1nc(NS(C)(=O)=O)c2c(Cl)ccc(-c3cc4[nH]c(C(C)(C)O)nc4nc3[C@H](Cc3cc(F)cc(F)c3)NC(=O)Cn3nc(C(F)F)c4c3C(F)(F)[C@@H]3C[C@H]43)c21` [Example 105, N—((S)-1-(6-(4-chloro-1-methyl-3-(methylsulfonamido)-1H-indazol-7-yl)-2-(2-hydroxypropan-2-yl)-1H-imidazo[4,5-b]pyridin-5-yl)-2-(3,5-difluorophenyl)ethyl)-2-((3bS,4aR)-3-(difluoromethyl)-5,5-difluoro-3b,4,4a,5-tetrahydro-1H-cyclopropa[3,4]cyclopenta[1,2-c]pyrazol-1-yl)acetamide], the pEC50 was 8.31. Consider `Cn1nc(NS(C)(=O)=O)c2cccc(-c3cc4sc(NCC(C)(C)O)nc4nc3[C@H](Cc3cc(F)cc(F)c3)NC(=O)Cn3nc(C(F)F)c4c3C(F)(F)CCC4(F)F)c21` [Compound 56, (S)-2-(3-(difluoromethyl)-4,4,7,7-tetrafluoro-4,5,6,7-tetrahydro-1H-indazol-1-yl)-N-(2-(3,5-difluorophenyl)-1-(2-((2-hydroxy-2-methylpropyl)amino)-6-(1-methyl-3-(methylsulfonamido)-1H-indazol-7-yl)thiazolo[4,5-b]pyridin-5-yl)ethyl)acetamide], for which the pEC50 was 7.25.

Take `Cn1nc(N)c2cccc(-c3cc4sc(N5CC(C)(O)C5)nc4nc3[C@H](Cc3cc(F)cc(F)c3)NC(=O)Cn3nc(C(F)F)c4c3C(F)(F)[C@@H]3C[C@H]43)c21` [Compound 59, N—((S)-1-(6-(3-amino-1-methyl-1H-indazol-7-yl)-2-(3-hydroxy-3-methylazetidin-1-yl)thiazolo[4,5-b]pyridin-5-yl)-2-(3,5-difluorophenyl)ethyl)-2-((3bS,4aR)-3-(difluoromethyl)-5,5-difluoro-3b,4,4a,5-tetrahydro-1H-cyclopropa[3,4]cyclopenta[1,2-c]pyrazol-1-yl)acetamide]: the pEC50 was 7.79.

As for `Cn1nc(NS(C)(=O)=O)c2cccc(-c3cc4sc(C#N)nc4nc3C(Cc3cc(F)cc(F)c3)NC(=O)Cn3nc(C(F)(F)F)c4c3C(F)(F)[C@@H]3C[C@H]43)c21` (stereo partly drawn) [Compound 131, N-(1-(2-cyano-6-(1-methyl-3-(methylsulfonamido)-1H-indazol-7-yl)thiazolo[4,5-b]pyridin-5-yl)-2-(3,5-difluorophenyl)ethyl)-2-((3bS,4aR)-5,5-difluoro-3-(trifluoromethyl)-3b,4,4a,5-tetrahydro-1H-cyclopropa[3,4]cyclopenta[1,2-c]pyrazol-1-yl)acetamide], the pEC50 is 7.55. Consider `O=C(Cn1nc(C(F)(F)F)c2c1C(F)(F)[C@@H]1C[C@H]21)N[C@@H](Cc1cc(F)cc(F)c1)c1nc2nc(N3CCN(c4ccncc4)CC3)sc2cc1-c1ccc2c(c1)C(=O)NC2` [Compound 36, 2-((3bS,4aR)-5,5-difluoro-3-(trifluoromethyl)-3b,4,4a,5-tetrahydro-1H-cyclopropa[3,4]cyclopenta[1,2-c]pyrazol-1-yl)-N—((S)-2-(3,5-difluorophenyl)-1-(6-(3-oxoisoindolin-5-yl)-2-(4-(pyridin-4-yl)piperazin-1-yl)thiazolo[4,5-b]pyridin-5-yl)ethyl)acetamide], for which the pEC50 is 7.54. Regarding `Cn1nc(NS(C)(=O)=O)c2cccc(-c3cc4scnc4nc3C(Cc3cc(F)cc(F)c3)NC(=O)Cn3nc(C(F)(F)F)c4c3C(F)(F)[C@@H]3C[C@H]43)c21` (stereo partly drawn) [Compound 129, 2-((3bS,4aR)-5,5-difluoro-3-(trifluoromethyl)-3b,4,4a,5-tetrahydro-1H-cyclopropa[3,4]cyclopenta[1,2-c]pyrazol-1-yl)-N-(2-(3,5-difluorophenyl)-1-(6-(1-methyl-3-(methylsulfonamido)-1H-indazol-7-yl)thiazolo[4,5-b]pyridin-5-yl)ethyl)acetamide], the pEC50 is 7.77.

As to `COCCOCCNc1nc2nc([C@H](Cc3cc(F)cc(F)c3)NC(=O)Cn3nc(C(F)F)c4c3C(F)(F)CCC4(F)F)c(-c3ccc(F)c(C(N)=O)c3)cc2s1` [Compound 4, (S)-5-(5-(1-(2-(3-(difluoromethyl)-4,4,7,7-tetrafluoro-4,5,6,7-tetrahydro-1H-indazol-1-yl)acetamido)-2-(3,5-difluorophenyl)ethyl)-2-((2-(2-methoxyethoxy)ethyl)amino)thiazolo[4,5-b]pyridin-6-yl)-2-fluorobenzamide], the pEC50 was 6.81. This pEC50 lies 0.96 log units lower than the previous one. For `Cn1nc(NS(C)(=O)=O)c2cccc(-c3cc4sc(N5CCC5C(N)=O)nc4nc3[C@H](Cc3cc(F)cc(F)c3)NC(=O)Cn3nc(C(F)(F)F)c4c3C(F)(F)[C@@H]3C[C@H]43)c21` (stereo partly drawn) [Example 74, 1-(5-((S)-1-(2-((3bS,4aR)-5,5-difluoro-3-(trifluoromethyl)-3b,4,4a,5-tetrahydro-1H-cyclopropa[3,4]cyclopenta[1,2-c]pyrazol-1-yl)acetamido)-2-(3,5-difluorophenyl)ethyl)-6-(1-methyl-3-(methylsulfonamido)-1H-indazol-7-yl)thiazolo[4,5-b]pyridin-2-yl)azetidine-2-carboxamide] the value was 7.24; for `CNc1nc2nc([C@H](Cc3cc(F)cc(F)c3)NC(=O)Cn3nc(C(F)(F)F)c4c3C(F)(F)[C@@H]3C[C@H]43)c(-c3cccc4c(NS(C)(=O)=O)nn(C)c34)cc2s1` [Example 79, 2-((3bS,4aR)-5,5-difluoro-3-(trifluoromethyl)-3b,4,4a,5-tetrahydro-1H-cyclopropa[3,4]cyclopenta[1,2-c]pyrazol-1-yl)-N—((S)-2-(3,5-difluorophenyl)-1-(6-(1-methyl-3-(methylsulfonamido)-1H-indazol-7-yl)-2-(methylamino)thiazolo[4,5-b]pyridin-5-yl)ethyl)acetamide], 7.83.

Molecule `Cn1nc(NS(C)(=O)=O)c2cccc(-c3cc4[nH]c(-c5ccccc5)cc4nc3[C@H](Cc3cc(F)cc(F)c3)NC(=O)Cn3nc(C(F)F)c4c3C3CC3CC4)c21` (stereo partly drawn) [Example 122, 2-(3-(difluoromethyl)-5,5a,6,6a-tetrahydrocyclopropa[g]indazol-1(4H)-yl)-N—((S)-2-(3,5-difluorophenyl)-1-(6-(1-methyl-3-(methylsulfonamido)-1H-indazol-7-yl)-2-phenyl-1H-pyrrolo[3,2-b]pyridin-5-yl)ethyl)acetamide] showed a pEC50 of 7.91. For `Cn1nc(NS(C)(=O)=O)c2cccc(-c3cc4sc(N5CC6(CCNCC6)C5)nc4nc3[C@H](Cc3cc(F)cc(F)c3)NC(=O)Cn3nc(C(F)(F)F)c4c3C(F)(F)[C@@H]3C[C@H]43)c21` [Example 91, 2-((3bS,4aR)-5,5-difluoro-3-(trifluoromethyl)-3b,4,4a,5-tetrahydro-1H-cyclopropa[3,4]cyclopenta[1,2-c]pyrazol-1-yl)-N—((S)-2-(3,5-difluorophenyl)-1-(6-(1-methyl-3-(methylsulfonamido)-1H-indazol-7-yl)-2-(2,7-diazaspiro[3.5]nonan-2-yl)thiazolo[4,5-b]pyridin-5-yl)ethyl)acetamide] the value was 7.19.

The molecule `Cn1nc(NS(=O)(=O)C2CC2)c2cccc(-c3cc4sc(NCC(C)(C)O)nc4nc3[C@H](Cc3cc(F)cc(F)c3)NC(=O)Cn3nc(C(F)F)c4c3C(F)(F)[C@@H]3C[C@H]43)c21` [Compound 62, N—((S)-1-(6-(3-(cyclopropanesulfonamido)-1-methyl-1H-indazol-7-yl)-2-((2-hydroxy-2-methylpropyl)amino)thiazolo[4,5-b]pyridin-5-yl)-2-(3,5-difluorophenyl)ethyl)-2-((3bS,4aR)-3-(difluoromethyl)-5,5-difluoro-3b,4,4a,5-tetrahydro-1H-cyclopropa[3,4]cyclopenta[1,2-c]pyrazol-1-yl)acetamide] gave a pEC50 of 8.10. Compared with the last molecule, the pEC50 is 0.91 log units higher.

As usually defined, the pEC50 is −log10 of the EC50, conventionally taken in molar units. Low readings indicate a large EC50, high ones a small EC50.
